Source: ChEMBL document CHEMBL3046609, “Herbicidal properties of the thaxtomin group of phytotoxins” (2001)
Active and inactive are the calls of the source. The calls are words filed in the database; no cut-off is given here.

Key:
[1] = system: Agrostis stolonifera var. palustris; assay: Herbicidal activity against Agrostis stolonifera var. palustris assessed as stunting after 9 days by agarose-based test; format: functional, organism-based
Abutilon theophrasti [2] = assay: Herbicidal activity against Abutilon theophrasti (velvetleaf) assessed as visual injury at 100 ug/seedling applied to meristem after 1 week relative to control; format: functional
Abutilon theophrasti [3] = assay: Herbicidal activity against Abutilon theophrasti (velvetleaf) assessed as visual injury at 1 ug/seedling applied to leaf after 1 week relative to control; format: functional
Helianthus annuus [4] = assay: Herbicidal activity against Helianthus annuus (sunflower) assessed as visual injury at 1 ug/seedling applied to cotyledon after 1 week relative to control; format: functional
Helianthus annuus [5] = assay: Herbicidal activity against Helianthus annuus (sunflower) assessed as visual injury at 100 ug/seedling applied to meristem after 1 week relative to control; format: functional
Helianthus annuus [6] = assay: Herbicidal activity against Helianthus annuus (sunflower) assessed as visual injury at 1 ug/seedling applied to meristem after 1 week relative to control; format: functional
Helianthus annuus [7] = assay: Herbicidal activity against Helianthus annuus (sunflower) assessed as visual injury at 10 ug/seedling applied to meristem after 1 week relative to control; format: functional
[8] = system: Agrostis stolonifera var. palustris; assay: Herbicidal activity against Agrostis stolonifera var. palustris assessed as root tip puffing after 9 days by agarose-based test; format: functional, organism-based
Abutilon theophrasti [9] = assay: Herbicidal activity against Abutilon theophrasti (velvetleaf) assessed as visual injury at 100 ug/seedling applied to leaf after 1 week relative to control; format: functional
Helianthus annuus [10] = assay: Herbicidal activity against Helianthus annuus (sunflower) assessed as visual injury at 10 ug/seedling applied to cotyledon after 1 week relative to control; format: functional
Arabidopsis thaliana [11] = assay: Growth inhibition of Arabidopsis thaliana var. Columbia assessed as root tip puffing after 9 days by agarose-based test; format: functional, organism-based
Arabidopsis thaliana [12] = assay: Growth inhibition of Arabidopsis thaliana var. Columbia assessed as stunting after 9 days by agarose-based test; format: functional, organism-based
Arabidopsis thaliana [13] = assay: Growth inhibition of Arabidopsis thaliana var. Columbia after 9 days by agarose-based test; format: functional
Helianthus annuus [14] = assay: Herbicidal activity against Helianthus annuus (sunflower) assessed as visual injury at 100 ug/seedling applied to cotyledon after 1 week relative to control; format: functional
Abutilon theophrasti [15] = assay: Herbicidal activity against Abutilon theophrasti (velvetleaf) assessed as visual injury at 10 ug/seedling applied to leaf after 1 week relative to control; format: functional
Abutilon theophrasti [16] = assay: Herbicidal activity against Abutilon theophrasti (velvetleaf) assessed as visual injury at 10 ug/seedling applied to meristem after 1 week relative to control; format: functional
[17] = system: Agrostis stolonifera var. palustris; assay: Herbicidal activity against Agrostis stolonifera var. palustris after 9 days by agarose-based test; format: functional
Abutilon theophrasti [18] = assay: Herbicidal activity against Abutilon theophrasti (velvetleaf) assessed as visual injury at 1 ug/seedling applied to meristem after 1 week relative to control; format: functional
Echinochloa crus-galli [19] = assay: Post-emergence herbicidal activity against Echinochloa crus-galli (barnyard grass) assessed as visual injury at 0.5 kg/ha after 9 days relative to control; format: functional
Avena fatua [20] = assay: Post-emergence growth inhibition of Avena fatua assessed as visual injury at 2 kg/ha after 9 days relative to control; format: functional; parameters: scale not given: the % may be the effect or the level left
Avena fatua [21] = assay: Post-emergence growth inhibition of Avena fatua assessed as visual injury at 1 kg/ha after 9 days relative to control; format: functional; parameters: scale not given: the % may be the effect or the level left
Ipomoea hederacea [22] = assay: Post-emergence herbicidal activity against Ipomoea hederacea (ivy-leaved morning glory) assessed as visual injury at 0.25 kg/ha after 9 days relative to control; format: functional
Ipomoea hederacea [23] = assay: Post-emergence herbicidal activity against Ipomoea hederacea (ivy-leaved morning glory) assessed as visual injury at 0.5 kg/ha after 9 days relative to control; format: functional
Echinochloa crus-galli [24] = assay: Post-emergence herbicidal activity against Echinochloa crus-galli (barnyard grass) assessed as visual injury at 1 kg/ha after 9 days relative to control; format: functional
Helianthus annuus [25] = assay: Post-emergence growth inhibition of Helianthus annuus (sunflower) assessed as visual injury at 0.5 kg/ha after 9 days relative to control; format: functional; parameters: scale not given: the % may be the effect or the level left
Helianthus annuus [26] = assay: Post-emergence growth inhibition of Helianthus annuus (sunflower) assessed as visual injury at 1 kg/ha after 9 days relative to control; format: functional; parameters: scale not given: the % may be the effect or the level left
Helianthus annuus [27] = assay: Post-emergence growth inhibition of Helianthus annuus (sunflower) assessed as visual injury at 0.25 kg/ha after 9 days relative to control; format: functional; parameters: scale not given: the % may be the effect or the level left
Echinochloa crus-galli [28] = assay: Post-emergence herbicidal activity against Echinochloa crus-galli (barnyard grass) assessed as visual injury at 2 kg/ha after 9 days relative to control; format: functional
Ipomoea hederacea [29] = assay: Post-emergence herbicidal activity against Ipomoea hederacea (ivy-leaved morning glory) assessed as visual injury at 2 kg/ha after 9 days relative to control; format: functional
Echinochloa crus-galli [30] = assay: Post-emergence herbicidal activity against Echinochloa crus-galli (barnyard grass) assessed as visual injury at 0.25 kg/ha after 9 days relative to control; format: functional
Ipomoea hederacea [31] = assay: Post-emergence herbicidal activity against Ipomoea hederacea (ivy-leaved morning glory) assessed as visual injury at 1 kg/ha after 9 days relative to control; format: functional
Avena fatua [32] = assay: Post-emergence growth inhibition of Avena fatua assessed as visual injury at 0.5 kg/ha after 9 days relative to control; format: functional; parameters: scale not given: the % may be the effect or the level left
Avena fatua [33] = assay: Post-emergence growth inhibition of Avena fatua assessed as visual injury at 0.25 kg/ha after 9 days relative to control; format: functional; parameters: scale not given: the % may be the effect or the level left
Helianthus annuus [34] = assay: Post-emergence growth inhibition of Helianthus annuus (sunflower) assessed as visual injury at 2 kg/ha after 9 days relative to control; format: functional; parameters: scale not given: the % may be the effect or the level left
Avena fatua [35] = assay: Post-emergence growth inhibition of Avena fatua assessed as visual injury at 0.125 kg/ha after 9 days relative to control; format: functional; parameters: scale not given: the % may be the effect or the level left
Ipomoea hederacea [36] = assay: Post-emergence herbicidal activity against Ipomoea hederacea (ivy-leaved morning glory) after 9 days; format: functional
Echinochloa crus-galli [37] = assay: Post-emergence herbicidal activity against Echinochloa crus-galli (barnyard grass) assessed as visual injury at 0.125 kg/ha after 9 days relative to control; format: functional
Helianthus annuus [38] = assay: Post-emergence growth inhibition of Helianthus annuus (sunflower) assessed as visual injury at 0.125 kg/ha after 9 days relative to control; format: functional; parameters: scale not given: the % may be the effect or the level left
Ipomoea hederacea [39] = assay: Post-emergence herbicidal activity against Ipomoea hederacea (ivy-leaved morning glory) assessed as visual injury at 0.125 kg/ha after 9 days relative to control; format: functional

Row | Compound | Activity [1] | Activity (Abutilon theophrasti [2]) [%] | Activity (Abutilon theophrasti [3]) [%] | Activity (Helianthus annuus [4]) [%] | Activity (Helianthus annuus [5]) [%] | Activity (Helianthus annuus [6]) [%] | Activity (Helianthus annuus [7]) [%] | Activity [8] | Activity (Abutilon theophrasti [9]) [%] | Activity (Helianthus annuus [10]) [%] | growth inhibition (GI) (Arabidopsis thaliana [11]) | growth inhibition (GI) (Arabidopsis thaliana [12]) | I50 (Arabidopsis thaliana [13]) [ppb] | Activity (Helianthus annuus [14]) [%] | Activity (Abutilon theophrasti [15]) [%] | Activity (Abutilon theophrasti [16]) [%] | I50 [17] [ppb] | Activity (Abutilon theophrasti [18]) [%] | further results
1 | O=C1N[C@@H](Cc2c[nH]c3cccc([N+](=O)[O-])c23)C(=O)N[C@H]1Cc1ccccc1 [DES-N-METHYLTHAXTOMIN C] | Active | 10 | 0 | 0 | 50 | 0 | 0 | Active | 0 | 0 | Active | Active | 400 | 0 | 0 | 0 | 600 | 0 | 
2 | CN1C(=O)[C@](O)(Cc2ccc(O)c(O)c2)N(C)C(=O)[C@@H]1Cc1c[nH]c2cccc([N+](=O)[O-])c12 [HYDROXYTHAXTOMIN A] | Active |  |  |  |  |  |  | Active |  |  | Active | Active | 10 |  |  |  | 40 |  | 
3 | CN1C(=O)[C@](O)(Cc2ccccc2)NC(=O)[C@@H]1Cc1c[nH]c2cccc([N+](=O)[O-])c12 [HYDROXYTHAXTOMIN C] | Active | 70 | 0 | 0 | 100 | 80 | 95 | Active | 0 | 0 | Active | Active | <40 | 20 | 0 | 20 | <40 | 0 | 
4 | CN1C(=O)[C@](O)(Cc2ccccc2O)N(C)C(=O)[C@@H]1Cc1c[nH]c2cccc([N+](=O)[O-])c12 [THAXTOMIN A O-ISOMER] | Active |  |  |  |  |  |  | Active |  |  | Active | Active | 100 |  |  |  | 90 |  | Activity (Echinochloa crus-galli [19]): 0%; Activity (Avena fatua [20]): 0%; Activity (Avena fatua [21]): 0%; Activity (Ipomoea hederacea [22]): 0%; Activity (Ipomoea hederacea [23]): 10%; Activity (Echinochloa crus-galli [24]): 0%; Activity (Helianthus annuus [25]): 10%; Activity (Helianthus annuus [26]): 75%; Activity (Helianthus annuus [27]): 0%; Activity (Echinochloa crus-galli [28]): 20%; Activity (Ipomoea hederacea [29]): 40%; Activity (Echinochloa crus-galli [30]): 0%; Activity (Ipomoea hederacea [31]): 40%; Activity (Avena fatua [32]): 0%; Activity (Avena fatua [33]): 0%; Activity (Helianthus annuus [34]): 75%
5 | CN1C(=O)[C@](O)(Cc2ccc(O)cc2)N(C)C(=O)[C@@H]1Cc1c[nH]c2cccc([N+](=O)[O-])c12 [THAXTOMIN A P-ISOMER] | Active |  |  |  |  |  |  | Active |  |  | Active | Active | 190 |  |  |  | 100 |  | 
6 | CN1C(=O)[C@](O)(Cc2ccccc2)N(C)C(=O)[C@@H]1Cc1c[nH]c2cccc([N+](=O)[O-])c12 [THAXTOMIN B] | Active |  |  |  |  |  |  | Active |  |  | Active | Active | 28 |  |  |  |  |  | 
7 | CN1C(=O)[C@H](Cc2ccccc2)NC(=O)[C@@H]1Cc1c[nH]c2cccc([N+](=O)[O-])c12 [THAXTOMIN C] | Active | 50 | 0 | 0 | 75 | 0 | 30 | Active | 0 | 0 | Active | Active | 50 | 0 | 0 | 0 | 40 | 0 | Activity (Echinochloa crus-galli [19]): 20%; Activity (Avena fatua [35]): 0%; Activity (Avena fatua [21]): 0%; Activity (Ipomoea hederacea [22]): 80%; Activity (Ipomoea hederacea [23]): 80%; GR50 (Ipomoea hederacea [36]): <125 g/ha; Activity (Echinochloa crus-galli [37]): 0%; Activity (Echinochloa crus-galli [24]): 40%; Activity (Helianthus annuus [25]): 30%; Activity (Helianthus annuus [26]): 70%; Activity (Helianthus annuus [27]): 30%; Activity (Echinochloa crus-galli [30]): 0%; Activity (Helianthus annuus [38]): 30%; Activity (Ipomoea hederacea [31]): 80%; Activity (Avena fatua [32]): 0%; Activity (Ipomoea hederacea [39]): 70%; Activity (Avena fatua [33]): 0%
